Test results published in patent publication US20230139445A1, “BACTERIAL CELLS WITH IMPROVED TOLERANCE TO DIACIDS” (priority 2016, published 2023).

Experiments:
[1] = test system: Escherichia coli K-12 MG1655 evolved isolates and knockout mutants; experiment: Biolector growth screening of evolved isolates and reconstructed (knockout) mutants in glutaric or adipic acid; assay type: cell-based
Description: Biological triplicate cultures of each strain were grown to saturation overnight in 96 well deepwell plates containing 300 μL M9+1% glucose. The next day, cells were diluted 1:10 in deionized water in a clear 96 well plate and the OD600 was measured on a BioTek plate reader. 48 well FlowerPlates containing a final volume of 1.4 mL of M9+1/o glucose (plus relevant chemical) were inoculated to OD600 0.03 (with plate reader pathlength, 200 μL volume) with the overnight culture and sealed with Breathseal film. Light backscatter intensity was monitored in a Biolector microbioreactor system at 37° C. with 1000 rpm shaking.
Each re-sequenced isolate was characterized using the Biolector system for growth at the screening concentration of chemical (47.5 g/L glutaric acid or 50 g/L adipic acid) in biological triplicates.

[2] = test system: Escherichia coli K-12 MG1655 knockout mutants; experiment: Growth Profiler growth screening of K-12 MG1655 single, double and triple knockout mutants in glutaric or adipic acid; assay type: cell-based; settings: M9 + 50 g/L adipate (neutralized)
Description: Five colonies from wild-type K-12 MG1655 and 10 individual colonies deriving from each population were inoculated into 300 μL M9+1% glucose in 96 well deepwell plates and incubated in a 300 rpm plate shaker at 37° C. The next day, cells were diluted 10× in M9+1% glucose and 30 μL was transferred into clear-bottomed 96 well half-deepwell plates (with rectangular wells) containing M9+1% glucose and M9+1% glucose+52.78 g/L glutaric acid or 55.56 g/L adipic acid, such that the final concentration of glutaric acid or adipic acid was 47.5 g/L or 50 g/L, respectively. In addition, cryogenic glycerol stocks of the overnight culture were saved in a 96 well plate format. Half deepwell plates were incubated at 37° C. with 225 rpm shaking in a Growth Profiler (Enzyscreen), with optical scans of the plates taken at 15 minute intervals. Green pixel values integrated over a 1 mm diameter circular area in each well were converted to OD600 values using a previously determined calibration between OD600 and green pixel values. […] In general, it was attempted to select three isolates per population for further analysis, and all populations were represented in the resequenced isolates.
Selected isolates from the primary screen were restruck onto LB agar from the cryogenic stock made from the overnight culture plate for the primary screen. Five K-12 MG1655 colonies and three individual colonies from each isolate were inoculated as biological replicates into a new 96 well deepwell plate containing 300 μL of M9+1% glucose, and grown overnight as for the primary screen. The next day, a cryogenic stock and half deepwell plates containing M9+1% glucose with or without glutaric acid or adipic acid were inoculated using the plate of overnight cultures, and growth was measured as described for the primary screen.
Probable important losses-of-function were determined by identifying genes across all isolates that harboured mutations, especially those occurring in multiple populations, and by the presence of at least one mutation that either generated a premature stop codon, a frameshift mutation, or the presence of an insertion element sequence within the gene. For those genes, the corresponding knockout strain from the Keio collection of single knockout mutants (where each gene is replaced with a cassette consisting of a kanamycin resistance gene flanked by FRT sites) was used as a donor strain for P1vir phage transduction. Briefly, the Keio strain was grown to early exponential phase in LB+5 mM CaCl2 and 80 μL of a P1vir stock raised on K-12 MG1655 was added. After significant lysis was observed after 1.5 to 2 hours, the lysate was filter-sterilized to remove cells and stored at 4° C. Strain K-12 MG1655 was grown overnight in LB+5 mM CaCl2) and 100 μL of the overnight culture was mixed with 100 μL of the P1vir lysate of the Keio collection mutant, and the mixture was incubated at 37° C. without shaking for 20 minutes. The entire mixture was then plated on LB agar containing 1.25 mM sodium pyrophosphate as a chelating agent and 25 μg/mL kanamycin. One colony was then restruck on LB+1.25 mM […]+25 μg/mL kanamycin plate and analyzed for presence of the Keio cassette in place of the wild-type gene by colony PCR. When further knockouts were constructed in the same strain, the Keio cassette was flipped out to generate a scar sequence such that Kan^R marker could be recycled. […]

[3] = strain ADIP1-1, M9 + 50 g/L adipic acid (neutralized with sodium hydroxide)
[4] = strain ADIP1-9, M9 + 50 g/L adipic acid (neutralized with sodium hydroxide)
[5] = strain ADIP2-5, M9 + 50 g/L adipic acid (neutralized with sodium hydroxide)
[6] = strain ADIP2-6, M9 + 50 g/L adipic acid (neutralized with sodium hydroxide)
[7] = strain ADIP2-10, M9 + 50 g/L adipic acid (neutralized with sodium hydroxide)
[8] = strain ADIP3-2, M9 + 50 g/L adipic acid (neutralized with sodium hydroxide)
[9] = strain ADIP3-4, M9 + 50 g/L adipic acid (neutralized with sodium hydroxide)
[10] = strain ADIP3-8, M9 + 50 g/L adipic acid (neutralized with sodium hydroxide)
[11] = strain ADIP4-8, M9 + 50 g/L adipic acid (neutralized with sodium hydroxide)
[12] = strain ADIP5-2, M9 + 50 g/L adipic acid (neutralized with sodium hydroxide)
[13] = strain ADIP5-6, M9 + 50 g/L adipic acid (neutralized with sodium hydroxide)
[14] = strain ADIP6-3, M9 + 50 g/L adipic acid (neutralized with sodium hydroxide)
[15] = strain ADIP6-9, M9 + 50 g/L adipic acid (neutralized with sodium hydroxide)
[16] = strain ADIP6-10, M9 + 50 g/L adipic acid (neutralized with sodium hydroxide)
[17] = strain ADIP7-2, M9 + 50 g/L adipic acid (neutralized with sodium hydroxide)
[18] = strain ADIP7-5, M9 + 50 g/L adipic acid (neutralized with sodium hydroxide)
[19] = strain ADIP8-3, M9 + 50 g/L adipic acid (neutralized with sodium hydroxide)
[20] = strain ADIP8-7, M9 + 50 g/L adipic acid (neutralized with sodium hydroxide)
[21] = strain ADIP8-10, M9 + 50 g/L adipic acid (neutralized with sodium hydroxide)
[22] = strain MG1655-1, M9 + 50 g/L adipic acid (neutralized with sodium hydroxide)

## O=C(O)CCCCC(=O)O [adipic acid]
[1]; [3]
  mean growth rate μ: 0.315 h⁻¹
  mean lag time tlag: 16.6 h
[1]; [4]
  mean growth rate μ: 0.274 h⁻¹
  mean lag time tlag: 5.8 h
[1]; [5]
  mean growth rate μ: 0.332 h⁻¹
  mean lag time tlag: 20.1 h
[1]; [6]
  mean growth rate μ: 0.337 h⁻¹
  mean lag time tlag: 22.1 h
[1]; [7]
  mean growth rate μ: 0.326 h⁻¹
  mean lag time tlag: 20.8 h
[1]; [8]
  mean growth rate μ: 0.295 h⁻¹
  mean lag time tlag: 16.6 h
[1]; [9]
  mean growth rate μ: 0.305 h⁻¹
  mean lag time tlag: 23.3 h
[1]; [10]
  mean growth rate μ: 0.295 h⁻¹
  mean lag time tlag: 20.1 h
[1]; [11]
  mean growth rate μ: 0.332 h⁻¹
  mean lag time tlag: 6.8 h
[1]; [12]
  mean growth rate μ: 0.401 h⁻¹
  mean lag time tlag: 4.7 h
[1]; [13]
  mean growth rate μ: 0.370 h⁻¹
  mean lag time tlag: 14.4 h
[1]; [14]
  mean growth rate μ: 0.280 h⁻¹
  mean lag time tlag: 6.5 h
[1]; [15]
  mean growth rate μ: 0.279 h⁻¹
  mean lag time tlag: 6.8 h
[1]; [16]
  mean growth rate μ: 0.284 h⁻¹
  mean lag time tlag: 7.1 h
[1]; [17]
  mean growth rate μ: 0.189 h⁻¹
  mean lag time tlag: 7.6 h
[1]; [18]
  mean growth rate μ: 0.292 h⁻¹
  mean lag time tlag: 19.3 h
[1]; [19]
  mean growth rate μ: 0.201 h⁻¹
  mean lag time tlag: 6.0 h
[1]; [20]
  mean growth rate μ: 0.206 h⁻¹
  mean lag time tlag: 7.2 h
[1]; [21]
  mean growth rate μ: 0.200 h⁻¹
  mean lag time tlag: 6.8 h
[1]; [22]
  mean growth rate μ: 0.133 h⁻¹
  mean lag time tlag: 21.4 h
[2]; strain MG1655 ΔkgtP proV::kan
  mean growth rate μ: 0.264 h⁻¹
  mean lag time tlag: 16.5 h
[2]; strain MG1655 ΔkgtP sspA::kan
  mean growth rate μ: 0.117 h⁻¹
